The text below walks through data of article PMC9611540, “PEGylation of the antimicrobial peptide LyeTx I-b maintains structure-related biological properties and improves selectivity” (Frontiers in Molecular Biosciences, 2022).

Series [1] relates to S. aureus ISOL_1 (multidrug-resistant isolate). The format is cell-based, Staphylococcus aureus. The conditions noted are these: for MIC: S. aureus ISOL_1, microdilution plates, Mueller Hinton, 10^4 bacterial cells per well, peptides 32 to 0.25 μM, triplicate. An excerpt:
(§1) Escherichia coli (ATCC 25922), Staphylococcus aureus (ATCC 33591), and three multidrug-resistant isolates (two E. coli and one S. aureus) were provided by Laboratory of Oral Microbiology and Anaerobes, Department of Microbiology, Institute of Biological Sciences, Federal University of Minas Gerais. Renal epithelial cells of the African green monkey (Cercopithecus aethiops) (VERO, ATCC CCL-81) were provided by the Federal University of Sao Joao del-Rei (UFSJ).
(§2) In order to determine MIC values of the PEGylated and the non-PEGylated peptides, bacterial isolates were cultured in TSA. After incubation for 24 h, at 37°C, under aerobic conditions, colonies were collected using an inoculation loop and transferred to saline solution (0.9% m/v NaCl). The inoculums were checked in a spectrophotometer at 600 nm; colonies were added until an absorbance corresponding to 1.5 × 10^8 cells · mL^−1 was obtained. Then, a 150-fold dilution was performed to achieve a concentration of 1 × 10^6 cells · mL^−1. MIC assays were performed in microdilution plates employing inoculums of 10^4 bacterial cells per well and concentrations of peptides ranging from 32 to 0.25 μM. All analyses were performed in triplicate. Positive (MH + bacterial inoculum) and negative (MH and MH + saline solution) controls were included in each batch of tests.
(§3) The specific values of molar peptide concentration used in this work were estimated according to the method described by [Schmid (2001)].

In series [2] the test system is Staphylococcus aureus (ATCC 33591). In kind it is cell-based. To be noted: for MIC: S. aureus ATCC 33591, microdilution plates, Mueller Hinton, 10^4 bacterial cells per well, peptides 32 to 0.25 μM, triplicate.
Excerpt: as §1, §2, §3

The subject of series [3] is Escherichia coli (ATCC 25922). In kind it is cell-based. The conditions noted are these: for MIC: E. coli ATCC 25922, microdilution plates, Mueller Hinton, 10^4 bacterial cells per well, peptides 32 to 0.25 μM, triplicate.
Excerpt: as §1, §2, §3
For orientation: Broth dilution looks for growth in wells or tubes with falling amounts of substance.

The subject of series [4] is E.coli ISOL_10 (multidrug-resistant isolate). The format is cell-based, Escherichia coli. To be noted: microdilution plates, Mueller Hinton, 10^4 bacterial cells per well, peptides 32 to 0.25 μM, triplicate.
Excerpt: as §1, §2, §3

Series [5] has as its system E.coli ISOL_11 (multidrug-resistant isolate). The format is cell-based, Escherichia coli. The conditions noted are these: for MIC: E. coli ISOL_11, microdilution plates, Mueller Hinton, 10^4 bacterial cells per well, peptides 32 to 0.25 μM, triplicate.
Excerpt: as §1, §2, §3

The target of series [6] is proteinase K (Parengyodontium album, UniProt P06873). The series is described as follows: Proteolytic degradation assay, RP-HPLC. In kind it is in vitro ADME. To be noted: 50 μM peptide, enzyme:substrate 1:50 (w/w) or 1:25 (w/w), 10 mM phosphate buffer pH 8.0, 37°C, up to 24 h, RP-HPLC C18, UV 215 nm. As to the method: (§4) The enzymes used in the experiments were trypsin and proteinase K. Enzyme solutions were prepared a few minutes before the experiments and contained 1.0 µM enzyme in 10 mM phosphate buffer at pH 8.0 for activation. Comparative proteolysis experiments between LyeTx I-b and LyeTx I-bPEG were performed by digesting the peptide solution (50 μM) with the enzyme solutions incubated at 37°C at an enzyme:substrate ratio of 1:50 (w/w) for trypsin and 1:50 (w/w) for proteinase K for 24 h. […] After inactivation, aliquots of 50 µL were injected into a Varian™ chromatograph (Varian, Inc. Corporate Headquarters, Palo Alto, CA, United States), model Pro Star 315, with ultraviolet detector, model Pro Star 335, using a Vydac™ 218 TP C18 (250 × 4.6 mm) reverse phase column. Chromatographic analyses were performed using a gradient of deionized water containing 0.1% TFA and acetonitrile containing 0.08% TFA. Samples were detected at 215 nm under a flow of 0.80 mL · min^−1 for 45 min.
proteinase K, sequence (P06873 106-384): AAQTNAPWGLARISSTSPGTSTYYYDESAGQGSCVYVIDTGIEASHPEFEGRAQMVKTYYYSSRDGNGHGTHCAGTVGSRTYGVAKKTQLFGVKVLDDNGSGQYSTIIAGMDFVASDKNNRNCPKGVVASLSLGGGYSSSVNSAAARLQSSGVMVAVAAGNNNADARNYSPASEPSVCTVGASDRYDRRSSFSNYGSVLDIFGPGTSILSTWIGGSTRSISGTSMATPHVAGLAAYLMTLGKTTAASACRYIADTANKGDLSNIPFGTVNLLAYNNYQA

Series [7] has as its system trypsin. The series is described as follows: Proteolytic degradation assay, RP-HPLC. The conditions noted are these: 50 μM peptide, enzyme:substrate 1:50 (w/w), 10 mM phosphate buffer pH 8.0, 37°C, up to 24 h, RP-HPLC C18, UV 215 nm. In kind it is in vitro ADME. On the procedure:
as §4

As to “Ac-IWLTALKFLGKNLGKLAKQQCAKL-NH2 [LyeTx I-bcys]”, the MIC in series [1] came out at 2.0 µM; in series [2] it was 2.0 µM; in series [3] it was 1.0 µM; in series [4] it was 1.0 µM; in series [5] it was 1.0 µM.

On to “Ac-IWLTALKFLGKNLGKLAKQQLAKL-NH2 [LyeTx I-b]”, for which the MIC in series [1] was 2.0 µM; in series [2] it was 2.0 µM; in series [3], 1.0 µM; in series [4], 1.0 µM; in series [5] it was 1.0 µM. Also, the “Selectivity index (SI)” value was determined as 0.48 in series [1] (S. aureus ISOL_1 versus VERO cells (CC50, MTT, 24 h)); 0.48 in series [2] (S. aureus ATCC 33591 versus VERO cells (CC50, MTT, 24 h)); 0.96 in series [3] (E. coli ATCC 25922 versus VERO cells (CC50, MTT, 24 h)); 0.96 in series [5] (E. coli ISOL_11 versus VERO cells (CC50, MTT, 24 h)). In addition, the “Proteolytic degradation by proteinase K” value in series [6] is listed as “almost completely degraded after 6 h”. In series [7], the “Proteolytic degradation by trypsin” value was “almost completely degraded after 6 h”.

For orientation: MIC means the least concentration at which growth counts as inhibited.
